“Also recorded” adds a separate entry of the source. Ends that are not written are not given here.

We go through 18 compounds from publication PMC8086025, “A benzopyran with antiarrhythmic activity is an inhibitor of Kir3.1-containing potassium channels” (The Journal of Biological Chemistry, 2021).

Data set [1] deals with T1, Kir3.1/4 channel (Homo sapiens, UniProt P48544+P48549).
T1 sequence (P48549 1-501): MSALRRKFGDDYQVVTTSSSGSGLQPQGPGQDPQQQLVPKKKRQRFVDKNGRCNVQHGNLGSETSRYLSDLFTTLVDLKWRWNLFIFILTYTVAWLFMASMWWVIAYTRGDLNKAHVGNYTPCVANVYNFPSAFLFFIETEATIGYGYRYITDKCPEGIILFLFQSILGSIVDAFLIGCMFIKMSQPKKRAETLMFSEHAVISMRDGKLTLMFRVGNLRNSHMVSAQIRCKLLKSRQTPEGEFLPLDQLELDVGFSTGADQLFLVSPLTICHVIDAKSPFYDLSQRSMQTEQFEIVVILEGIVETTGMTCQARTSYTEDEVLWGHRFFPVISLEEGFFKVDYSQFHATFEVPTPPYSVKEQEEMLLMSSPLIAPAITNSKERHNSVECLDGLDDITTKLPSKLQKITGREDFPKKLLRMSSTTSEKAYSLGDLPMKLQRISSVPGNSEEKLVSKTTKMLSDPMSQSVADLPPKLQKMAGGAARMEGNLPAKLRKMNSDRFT
T1 sequence (P48544 1-419): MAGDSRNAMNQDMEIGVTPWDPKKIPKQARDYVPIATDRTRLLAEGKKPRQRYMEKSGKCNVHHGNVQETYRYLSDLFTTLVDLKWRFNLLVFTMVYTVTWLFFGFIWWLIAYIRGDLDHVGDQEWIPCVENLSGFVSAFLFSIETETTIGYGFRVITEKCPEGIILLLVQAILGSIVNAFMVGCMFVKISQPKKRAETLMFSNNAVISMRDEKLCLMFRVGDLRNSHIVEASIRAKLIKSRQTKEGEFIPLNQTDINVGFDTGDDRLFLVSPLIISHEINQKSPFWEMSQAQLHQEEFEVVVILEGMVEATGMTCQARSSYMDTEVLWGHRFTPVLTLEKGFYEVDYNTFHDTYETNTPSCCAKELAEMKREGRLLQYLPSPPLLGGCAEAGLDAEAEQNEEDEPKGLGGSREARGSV
The experiment in a line: TEVC in Xenopus oocytes, Kir3.1/4. On the set-up: expressed in transfected cells; host or cells: Xenopus laevis oocytes (cRNA injection). Conditions: 1 μM, TEVC. The format is cell-based. Here is the method: X. laevis oocytes were isolated and microinjected as previously described ([6]). Human Kir3.1, mouse Kir3.2, and human Kir3.4 DNA constructs were used for electrophysiology experiments. All cRNA constructs were injected in the amount of 2 ng per oocyte. Injected oocytes were incubated for 2 to 3 days at 18 °C to allow for expression. Whole-cell oocyte currents were then measured using a GeneClamp 500 amplifier (Axon Instruments). Microelectrodes had resistances of 0.5 to 1 megohm using a 3M KCl solution in 1.4% agarose. Oocytes were perfused with a low K^+ (LK) solution ND96 (2 mM KCl, 96 mM NaCl, 1 mM MgCl2, 1.8 mM CaCl2, 5 mM HEPES-Na) to establish a baseline for the recordings. Basal current was measured in a high potassium (HK) solution ND96K (96 mM KCl, 10 mM HEPES-K, 1 mM MgCl2, 1.8 mM CaCl2). To block the current, the oocyte chamber was perfused with 4 mM BaCl2 in ND96K. Only the Barium-sensitive current was used for statistical analysis. To measure the inhibitory activity of the channels, 1 μM BP-G1 in ND96K (HK) was used. Typically, oocytes were held at 0 mV (EK) and the current was monitored constantly using a ramp protocol with a command potential from −80 to +80 mV. Current amplitude was measured at the end of a 1 s sweep. All currents were analyzed when they reached steady state. Error bars in the figures represent SD (N > 4).

Data set [2] deals with Benzodiazepine BDZ Central. The experiment in a line: Radioligand binding, [3H]flunitrazepam. On the set-up: species or system rat. To be noted: read-out: Reference: IC50.
The subject of data set [3] is IKACh. As to the kind of experiment: In vivo ECG, carbachol-induced heart rate slowing in anesthetized mice. Conditions: 300 μl of 200 μM i.p. Here is the method: We tested the in vivo effects of BP-G1 versus those of BP-G1(SR) on heart rate in anesthetized adult mice (Fig. 8). ECG was continuously recorded. Panel A is the ECG showing that after carbachol (300 μl of 200 μM) was administered, i.p. (red mark), the heart decelerated, with a visible RR prolongation. About 10 min after carbachol injection, BP-G1 was delivered via the jugular vein (40 μl of 240 μM) (green mark). Within 5 min, there was a reversal of carbachol’s effects on the heart rate. Panel B is a control mouse showing heart rate slowing after carbachol administration (red mark).
Mice were anesthetized (1.5% isofluorane), and a 1.2 French octapolar catheter (Millar) with a drug delivery port was placed transvenously, through the jugular vein, into the right atrium. Continuous ECG was recorded using the Animal Bio Amp and PowerLab 4/35 Advanced Instruments apparatus. […] Saline control at the same volume was performed. Results are averages ±SD.

For data set [4], the target named is SKCa. The experiment in a line: Radioligand binding, [125I]apamin. On the set-up: species or system rat. To be noted: reference compound run for the assay.
Data set [5] has as its target GABA Cl- channel (GABA-gated). As to the kind of experiment: Radioligand binding, [35S]TBPS. To be noted: reference compound run for the assay. Set-up: species or system rat.
Data set [6] addresses Purinergic Channels P2X. The experiment in a line: Radioligand binding, [3H]a,b-MeATP, rat urinary bladder. To be noted: reference compound run for the assay.
The target of data set [7] is T2, Chemokines CCR1 (Homo sapiens, UniProt P32246).
T2 construct: expressed in transfected cells; host or cells: HEK-293 cells
T2 sequence (P32246 1-355): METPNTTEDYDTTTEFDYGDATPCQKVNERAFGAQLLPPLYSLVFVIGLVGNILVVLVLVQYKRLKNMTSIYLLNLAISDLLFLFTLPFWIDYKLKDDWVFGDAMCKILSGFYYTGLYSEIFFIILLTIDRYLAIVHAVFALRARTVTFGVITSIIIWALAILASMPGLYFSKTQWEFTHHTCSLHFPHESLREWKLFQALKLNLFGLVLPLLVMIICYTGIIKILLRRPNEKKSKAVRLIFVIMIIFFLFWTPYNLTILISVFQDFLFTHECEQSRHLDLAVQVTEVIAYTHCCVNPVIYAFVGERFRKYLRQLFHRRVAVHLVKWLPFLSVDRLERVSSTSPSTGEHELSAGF
The experiment in a line: Radioligand binding, [125I]MIP-1a. Conditions: reference compound run for the assay.

Data set [8] relates to Kir3.1/3.4. On the set-up: method as in earlier work. Conditions: oocyte; published NTC-801 data ref 27; cited from earlier work.
Data set [9] concerns Kir3.1/3.2. On the set-up: method as in earlier work. To be noted: published NTC-801 data ref 27; cited from earlier work.
The test system of data set [10] is GP IKACh. On the set-up: method as in earlier work. To be noted: published NTC-801 data ref 27; cited from earlier work.
The target of data set [11] is T3, Kir2.1 (Homo sapiens, UniProt P63252).
T3 construct: host or cells: HEK293
Conditions: published NTC-801 data ref 27; cited from earlier work.

In data set [12] the target is T4, Kir6.2/SUR2A (Homo sapiens, UniProt O60706+Q14654).
T4 construct: Andrew Tinker, UCL; host or cells: HEK293
Conditions: IKATP; published NTC-801 data ref 27; cited from earlier work.

Data set [13] deals with Kv1.5 (Homo sapiens, UniProt P22460). Conditions: published NTC-801 data ref 27; cited from earlier work.
For data set [14], the target named is Kv4.3 (Homo sapiens, UniProt Q9UK17). Conditions: published NTC-801 data ref 27; cited from earlier work.
The subject of data set [15] is HCN4. Set-up: method as in earlier work. To be noted: published NTC-801 data ref 27; cited from earlier work.
Data set [16] concerns Kv7.1/KCNE1. Conditions: published NTC-801 data ref 27; cited from earlier work.
Data set [17] deals with hERG. Conditions: read-out: Published IC50, hERG; published NTC-801 data ref 27; cited from earlier work. (In general: hERG is a cardiac potassium channel; its block is linked to QT prolongation.)
For data set [18], the target named is Nav1.5 (Homo sapiens, UniProt Q14524). To be noted: read-out: Published IC50, Nav1.5 (1Hz); published NTC-801 data ref 27; cited from earlier work.
The test system of data set [19] is Cav1.2. Conditions: read-out: Published IC50, Cav1.2; ICa,L; published NTC-801 data ref 27; cited from earlier work.
The target of data set [20] is Adrenergic α2. As to the kind of experiment: Radioligand binding, [3H]prazosin. Conditions: reference compound run for the assay. Set-up: species or system rat.
Data set [21] addresses Purinergic Channels P2Y. The experiment in a line: Radioligand binding, [35S]dATPaS. Set-up: species or system rat. Conditions: reference compound run for the assay.
Data set [22] addresses T5, 5-HT2B (Homo sapiens, UniProt P41595).
T5 construct: expressed in transfected cells; host or cells: CHO cells
As to the kind of experiment: Radioligand binding, [125I](±)DOI. To be noted: reference compound run for the assay.

Data set [23] has as its target Bombesin BB. As to the kind of experiment: Radioligand binding, [125I][Tyr4]bombesin. To be noted: reference compound run for the assay. On the set-up: species or system rat.
For data set [24], the system named is Somatostatin sst. The experiment in a line: Radioligand binding, [125I]Tyr11-somatostatin-14, AtT-20 cells. To be noted: reference compound run for the assay.
Data set [25] addresses T6, Muscarinic M5 (Homo sapiens, UniProt P08912).
T6 construct: expressed in transfected cells; host or cells: CHO cells
As to the kind of experiment: Radioligand binding, [3H]4-DAMP. Conditions: reference compound run for the assay.

Data set [26] addresses T7, 5-HT2C (Homo sapiens, UniProt P28335).
T7 construct: expressed in transfected cells; host or cells: HEK-293 cells
As to the kind of experiment: Radioligand binding, [3H]mesulergine. Conditions: read-out: Reference: IC50.

The subject of data set [27] is TNF-α. The experiment in a line: Radioligand binding, [125I]TNF-a, U-937 cells. Conditions: reference compound run for the assay.

T5 sequence (P41595 whole entry): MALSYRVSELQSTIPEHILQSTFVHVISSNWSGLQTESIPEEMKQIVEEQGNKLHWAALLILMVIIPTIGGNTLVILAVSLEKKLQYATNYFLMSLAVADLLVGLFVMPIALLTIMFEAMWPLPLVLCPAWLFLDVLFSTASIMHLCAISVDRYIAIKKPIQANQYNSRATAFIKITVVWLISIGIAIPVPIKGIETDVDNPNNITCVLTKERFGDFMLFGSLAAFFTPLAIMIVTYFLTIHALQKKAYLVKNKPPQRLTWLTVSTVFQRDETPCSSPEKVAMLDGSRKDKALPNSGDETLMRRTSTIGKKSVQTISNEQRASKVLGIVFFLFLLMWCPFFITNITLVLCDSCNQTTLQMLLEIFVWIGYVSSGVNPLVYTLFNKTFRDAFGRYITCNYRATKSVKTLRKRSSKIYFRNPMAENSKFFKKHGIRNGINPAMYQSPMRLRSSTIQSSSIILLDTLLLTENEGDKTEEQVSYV
T6 sequence (P08912 whole entry): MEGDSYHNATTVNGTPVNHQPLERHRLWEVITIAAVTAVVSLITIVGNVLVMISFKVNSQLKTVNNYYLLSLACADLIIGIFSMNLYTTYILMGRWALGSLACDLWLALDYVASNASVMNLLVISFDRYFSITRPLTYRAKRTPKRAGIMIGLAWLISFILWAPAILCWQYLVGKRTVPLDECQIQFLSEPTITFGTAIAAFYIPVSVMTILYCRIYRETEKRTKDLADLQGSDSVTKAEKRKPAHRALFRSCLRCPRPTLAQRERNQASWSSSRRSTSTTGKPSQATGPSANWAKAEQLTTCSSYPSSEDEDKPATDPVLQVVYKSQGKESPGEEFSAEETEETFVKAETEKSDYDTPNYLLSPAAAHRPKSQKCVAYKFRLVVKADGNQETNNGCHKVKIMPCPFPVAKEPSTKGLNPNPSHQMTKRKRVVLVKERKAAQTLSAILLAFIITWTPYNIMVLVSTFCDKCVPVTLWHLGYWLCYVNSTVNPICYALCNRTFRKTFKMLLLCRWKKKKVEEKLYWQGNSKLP
T3 sequence (P63252 whole entry): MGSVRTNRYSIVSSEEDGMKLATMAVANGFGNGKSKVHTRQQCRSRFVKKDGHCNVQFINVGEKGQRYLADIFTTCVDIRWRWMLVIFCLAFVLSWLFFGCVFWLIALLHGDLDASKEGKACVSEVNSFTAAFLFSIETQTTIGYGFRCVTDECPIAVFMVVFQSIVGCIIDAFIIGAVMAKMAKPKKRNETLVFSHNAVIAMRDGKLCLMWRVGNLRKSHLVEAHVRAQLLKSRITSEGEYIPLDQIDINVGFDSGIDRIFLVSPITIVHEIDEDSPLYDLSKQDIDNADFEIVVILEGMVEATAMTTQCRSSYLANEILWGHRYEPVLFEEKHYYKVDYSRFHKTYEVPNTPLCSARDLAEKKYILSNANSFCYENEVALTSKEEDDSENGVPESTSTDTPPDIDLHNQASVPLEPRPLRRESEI
T7 sequence (P28335 33-458): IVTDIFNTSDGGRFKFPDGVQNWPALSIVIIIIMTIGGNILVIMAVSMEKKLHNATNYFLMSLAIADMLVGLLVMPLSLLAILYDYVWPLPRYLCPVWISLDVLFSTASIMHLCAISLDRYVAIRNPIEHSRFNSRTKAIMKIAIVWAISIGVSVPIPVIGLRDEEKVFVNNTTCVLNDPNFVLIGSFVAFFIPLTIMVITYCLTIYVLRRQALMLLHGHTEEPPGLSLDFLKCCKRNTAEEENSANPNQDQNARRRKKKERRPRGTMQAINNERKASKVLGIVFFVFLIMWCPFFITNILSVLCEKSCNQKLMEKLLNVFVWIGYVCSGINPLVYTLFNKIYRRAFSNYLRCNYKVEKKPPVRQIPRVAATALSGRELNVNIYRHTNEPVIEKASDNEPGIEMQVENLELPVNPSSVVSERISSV
T4 sequence (Q14654 whole entry): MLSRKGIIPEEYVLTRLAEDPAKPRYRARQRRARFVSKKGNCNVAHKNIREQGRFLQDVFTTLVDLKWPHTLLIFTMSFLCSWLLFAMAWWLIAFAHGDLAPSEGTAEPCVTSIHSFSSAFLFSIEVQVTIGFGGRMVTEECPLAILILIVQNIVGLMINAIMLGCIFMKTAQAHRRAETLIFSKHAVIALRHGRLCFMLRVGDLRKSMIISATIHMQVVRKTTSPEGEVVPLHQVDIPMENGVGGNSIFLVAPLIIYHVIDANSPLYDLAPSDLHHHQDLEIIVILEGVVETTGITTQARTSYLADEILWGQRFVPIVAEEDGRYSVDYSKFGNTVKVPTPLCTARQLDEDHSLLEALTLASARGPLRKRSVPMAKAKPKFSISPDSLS
T4 sequence (O60706 whole entry): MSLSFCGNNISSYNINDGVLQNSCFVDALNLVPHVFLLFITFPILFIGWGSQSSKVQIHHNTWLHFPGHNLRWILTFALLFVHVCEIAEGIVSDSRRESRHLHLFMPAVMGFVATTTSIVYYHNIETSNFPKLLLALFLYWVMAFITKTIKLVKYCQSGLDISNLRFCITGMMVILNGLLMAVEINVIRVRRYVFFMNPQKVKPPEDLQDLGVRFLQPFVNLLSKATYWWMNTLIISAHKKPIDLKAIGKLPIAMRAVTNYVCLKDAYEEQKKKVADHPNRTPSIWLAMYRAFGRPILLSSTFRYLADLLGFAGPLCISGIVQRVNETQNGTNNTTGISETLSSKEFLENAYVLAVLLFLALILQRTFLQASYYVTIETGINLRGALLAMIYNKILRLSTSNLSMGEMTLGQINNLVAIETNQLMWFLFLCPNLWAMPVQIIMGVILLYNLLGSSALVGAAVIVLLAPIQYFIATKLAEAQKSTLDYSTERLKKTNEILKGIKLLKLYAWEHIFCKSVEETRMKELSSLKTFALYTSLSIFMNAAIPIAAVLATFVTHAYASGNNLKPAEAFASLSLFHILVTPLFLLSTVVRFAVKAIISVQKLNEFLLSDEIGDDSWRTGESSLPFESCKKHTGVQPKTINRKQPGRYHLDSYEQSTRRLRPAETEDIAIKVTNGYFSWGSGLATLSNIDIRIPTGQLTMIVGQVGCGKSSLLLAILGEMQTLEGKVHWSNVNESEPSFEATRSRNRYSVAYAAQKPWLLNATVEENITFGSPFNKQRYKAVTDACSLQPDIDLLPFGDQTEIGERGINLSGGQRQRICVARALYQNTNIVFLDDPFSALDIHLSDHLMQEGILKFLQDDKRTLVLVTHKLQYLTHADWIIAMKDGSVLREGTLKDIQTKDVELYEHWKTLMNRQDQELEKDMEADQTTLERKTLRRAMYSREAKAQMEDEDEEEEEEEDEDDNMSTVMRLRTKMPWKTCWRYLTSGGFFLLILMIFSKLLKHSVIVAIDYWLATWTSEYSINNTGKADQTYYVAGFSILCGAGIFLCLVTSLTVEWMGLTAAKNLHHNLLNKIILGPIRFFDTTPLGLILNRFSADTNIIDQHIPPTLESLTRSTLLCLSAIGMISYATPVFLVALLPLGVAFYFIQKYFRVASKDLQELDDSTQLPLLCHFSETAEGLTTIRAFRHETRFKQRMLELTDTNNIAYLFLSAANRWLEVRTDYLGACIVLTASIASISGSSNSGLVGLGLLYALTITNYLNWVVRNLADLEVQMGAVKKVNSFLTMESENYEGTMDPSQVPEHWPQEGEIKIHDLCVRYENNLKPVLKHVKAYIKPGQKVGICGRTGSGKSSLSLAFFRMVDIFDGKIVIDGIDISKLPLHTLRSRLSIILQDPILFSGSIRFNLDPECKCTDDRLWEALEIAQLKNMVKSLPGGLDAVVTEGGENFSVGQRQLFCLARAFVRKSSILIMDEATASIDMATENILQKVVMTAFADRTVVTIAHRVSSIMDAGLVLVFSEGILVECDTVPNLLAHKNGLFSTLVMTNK
Sequence of Kv4.3 (Q9UK17 whole entry): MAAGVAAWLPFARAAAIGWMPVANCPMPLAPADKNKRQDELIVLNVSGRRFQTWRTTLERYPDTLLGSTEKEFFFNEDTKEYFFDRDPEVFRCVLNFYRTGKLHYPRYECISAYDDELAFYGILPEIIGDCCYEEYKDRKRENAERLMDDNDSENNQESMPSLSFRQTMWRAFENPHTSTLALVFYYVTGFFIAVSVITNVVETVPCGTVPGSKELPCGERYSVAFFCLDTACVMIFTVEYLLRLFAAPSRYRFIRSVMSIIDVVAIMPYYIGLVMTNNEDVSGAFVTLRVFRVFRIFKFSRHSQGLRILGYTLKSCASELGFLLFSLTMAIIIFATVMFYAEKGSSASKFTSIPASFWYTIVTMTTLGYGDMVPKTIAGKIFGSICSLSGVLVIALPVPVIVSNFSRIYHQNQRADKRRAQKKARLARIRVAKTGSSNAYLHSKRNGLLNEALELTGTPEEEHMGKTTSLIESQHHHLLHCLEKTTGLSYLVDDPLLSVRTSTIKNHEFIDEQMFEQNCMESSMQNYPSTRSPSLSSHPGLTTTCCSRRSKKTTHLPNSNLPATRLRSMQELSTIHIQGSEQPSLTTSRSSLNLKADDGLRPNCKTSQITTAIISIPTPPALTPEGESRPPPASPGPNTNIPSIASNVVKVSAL

On to `Cc1ccnc2cc3c(cc12)OC(C)(C)C=C3` [GAT1572, 2,2,9-trimethyl-2H-pyrano[2,3-g]quinoline], for which the “inhibitory activity on Kir3.1/4 channel” value in [1] was “not active”. Take `CN1C(=O)CN=C(c2ccccc2)c2cc(Cl)ccc21` [diazepam]: in data set [2], the IC50 (usually the concentration at which inhibition is half-maximal) was found to be 8.6 nM. On to `C[N+](C)(C)CCOC(N)=O` [Carbachol, carbachol, reference compound], for which the “RR interval after carbachol” value is on record as 474.2 ± 60.7 ms in data set [3] (BP-G1 group, baseline 155.2 ± 16.3 ms) and 476.7 ± 77.8 ms in [3] (saline control group, baseline 168.6 ± 10.7 ms). The compound “apamin (CNCKAPETALCARRCQQH; ends and bridges not checked; cysteine pairing not given here; UniProt P01500 28-45, looked up)” gave an IC50 in [4] of 0.0091 nM. In [5], `C=C(C)[C@@H]1[C@H]2OC(=O)[C@@H]1[C@]1(O)C[C@H]3O[C@]34C(=O)O[C@H]2[C@]14C` [picrotoxinin, reference compound] yielded an IC50 of 150 nM. For `Nc1ncnc2c1ncn2[C@@H]1O[C@H](COP(=O)(O)CP(=O)(O)OP(=O)(O)O)[C@@H](O)[C@H]1O` [a,b-MeATP], the IC50 in data set [6] stood at 3.5 nM. On to MIP-1a: assay reference compound, for which, in data set [7], the IC50 was 0.04 nM. Turning to `Cc1cc(CO)nc2cc3c(cc12)OC(C)(C)[C@H](O)[C@H]3NCCc1ccccc1` [NTC-801], the concentration for half-maximal inhibition (IC50) in data set [8] is 0.7 nM; in [9] it was 34 nM; in data set [10], 7 nM; in data set [11], over 30000 nM; in data set [12], 7800 nM; in [13], over 30000 nM. Also, the IC50 in data set [14] was over 11600 nM; in [15] it was over 30000 nM; in data set [16], over 30000 nM; in data set [17], over 30000 nM; in [18], 8300 nM; in data set [19], over 30000 nM.

In turn, `COc1cc2nc(N3CCN(C(=O)c4ccco4)CC3)nc(N)c2cc1OC` [prazosin] registered an IC50 in [20] of 0.182 nM.

Compound `Nc1ncnc2c1ncn2[C@H]1C[C@H](O)[C@@H](COP(O)(=S)OP(=O)(O)OP(=O)(O)O)O1` (stereo partly drawn) [dATPaS] displayed an IC50 in data set [21] of 20 nM.

In the case of `Cc1cc(CO)nc2cc3c(cc12)OC(C)(C)C=C3` [GAT1573, (2,2,9-trimethyl-2H-pyrano[2,3-g]quinolin-7-yl)methanol], the “inhibitory activity on Kir3.1/4 channel” value in data set [1] is “not active”. In the case of `COc1cc(CC(C)N)c(OC)cc1I` (racemic) [(±)DOI], the IC50 in [22] was determined as 5 nM. On to bombesin, for which the IC50 in data set [23] came out at 0.205 nM. As for somatostatin-14, the IC50 in data set [24] was found to be 0.2 nM.

Compound `C[N+]1(C)CCC(OC(=O)C(c2ccccc2)c2ccccc2)CC1` [4-DAMP] gave an IC50 in data set [25] of 0.52 nM. `Cc1ccnc2cc3c(cc12)OC(C)(C)[C@H](O)[C@H]3NCCc1ccccc1` [GAT1588, (3R,4S)-2,2,9-trimethyl-4-(phenethylamino)-3,4-dihydro-2H-pyrano[2,3-g]quinolin-3-ol]: the “inhibitory activity on Kir3.1/4 channel” value in data set [1] is on record as “retained comparable inhibitory activity to BP-G1; also recorded: inhibited the channel with comparable activity to BP-G1”. In the case of `COc1cc(OC)c(C(=O)CCCCN2CCC3(CC2)NC(=O)NC3=O)cc1NS(=O)(=O)c1ccc(C(F)(F)F)cc1` [RS 102221], in data set [26], the IC50 turned out to be 3.1 nM. In data set [27], TNF-a registered an IC50 of 0.1 nM.
